Data taken from publication PMC8234462, “Novel Cyclophilin Inhibitor Decreases Cell Proliferation and Tumor Growth in Models of Hepatocellular Carcinoma” (Cancers, 2021).
pIC50: −log10 of the molar value. Read-outs that look alike come from different tables or passages of the source.

How the values were obtained:
iPS cardiomyocytes = experiment: Cytotoxicity, CellTiter Glo; type: cell-based; details: Homo sapiens, Cardiomyocyte, 72 h, 3 days of treatment, read-out: IC50 (50% reduction in cell viability)
Protocol: The evaluation of the off-target effects of NV651 was performed by ImQuest BioSciences Inc. (Frederick, MD, USA) by analyzing the cytotoxicity in a panel of primary cells. NV651 was evaluated at a concentration of 30 µM and five serial half-logarithmic dilutions in triplicate. The positive control compounds for each cell type were purchased from Sigma-Aldrich (St. Louis, MO, USA) and were as follows: Unstimulated human peripheral blood mononuclear cells (PBMCs), phytohemagglutinin (PHA)-stimulated PBMCs, monocytes/macrophages, dendritic cells, hepatocytes, induced pluripotent stem cell (iPS) neurons: […] AZT, kidney cells (RPTEC): cisplatin and iPS cardiomyocytes: Doxazosin. iPS cardiomyocytes (Cellular Dynamics, Madison, WI, USA) were seeded in a 96-well plate precoated with 0.1% gelatin (Sigma-Aldrich, St. Louis, MO, USA) in a plating medium (Cellular dynamics, Madison, WI, USA) at a concentration of 1.5 × 10^4 cells/well. After 48 h of incubation, cells were washed, and NV651 diluted in the maintenance medium (Cellular Dynamics, Madison, WI, USA) was added. After 3 days of incubation, cell viability was measured with CellTiter Glo (Promega, Madison, WI, USA). CellTiter Glo was performed to evaluate cell viability. CellTiter Glo Luminescent Cell Viability Assay (Promega, Madison, WI, USA) was performed according to the manufacturer’s instructions.

HUH7 [1] = experiment: Phospho-Histone 3 (PH3) staining; type: cell-based, human; details: 10 or 100 nM, 48 h
Protocol: For the quantification of mitotic cells, HEPG2 cells were seeded in a 6-well plate at a concentration of 1.5 × 10^5 cells/well and HUH7 at 1 × 10^5 cells/well in a 6-well plate. Both cells lines were treated with 10 or 100 nM of NV651 or the equivalent volume of DMSO. Samples were fixed for HEPG2 at 24 h and for HUH7 at 48 h of treatment, as described above. Permeabilization was performed by adding 0.25% Tween20 (Sigma-Aldrich, Cat# P1379-500ML, St. Louis, MO, USA) diluted in PBS. Samples were stained with primary antibody mouse anti-PH3 (Merck Millipore, Cat# 05-806, Burlington, MA, USA) at a dilution of 1/100 overnight at 4 °C and with the secondary antibody goat anti-Mouse IgG AF488 conjugated (Life technologies, Cat# A11029, Carlsbad, CA, USA) for 1 h at room temperature. After washing, 1-µg/mL DAPI was added for the staining of the DNA content.
(§1) Data was acquired with FACSverse Instrument and analyzed with FCS Express 6 Flow Research.

[2] = Pharmacokinetics IV and PO; type: in vivo; details: male, CD1, mouse, blood, mice; for Tmax: read-out: time of peak concentration in blood (converted)
Protocol: These experiments were performed by Shanghai ChemPartner Co., Ltd. (Shanghai, China) following the guidance described above.
Thirty microliters of blood or liver samples were mixed with 100-µL Pierce Acetonitrile (ACN, Thermo Fisher Scientific, Waltham, MA, USA) containing 20-ng/mL IS (702) used as the internal standard. An aliquot of 10-µL supernatant was injected for LC-MS/MS analysis using LCMSMS-003 (API4000).
NV651 was prepared as described above. Six- to eight-week-old male mice were treated IV with 0.5 mg/kg or PO with 5 mg/kg, with 3 mice per group. Blood and plasma samples were taken pre-dose; at 5 min of treatment and at 1, 2, 4, 8 or 24 h. Analysis was performed as indicated above.

HEPG2 [3] = experiment: Cell cycle analysis (PI DNA content); type: cell-based, human
Protocol: (§2) For the quantification of the DNA content, cells were treated with DMSO or 100 nM of NV651. Samples were collected at 24, 48, 72 and 96 h, followed by fixation with 70% (v/v) ethanol. DNA was stained with 50-µg/mL PI. Due to the capacity of PI to stain any type of nucleotide, RNase (100 µg/mL) (Sigma-Aldrich, Cat# R4875-100MG, St. Louis, MO, USA) was also added. To quantify the apoptotic cell fraction, we measured the subG1 fraction in the cell cycle.
as §1

HUH7 [4] = experiment: Cell cycle analysis (PI DNA content); type: cell-based, human
Protocol: as §2, §1

HEPG2 [5] = experiment: Cell proliferation and viability with Acridine Orange and DAPI; type: cell-based, human
Protocol: (§3) For the quantification of the total cell number, cells were seeded at a concentration of 6000 cells/well for HEPG2 and 9000 cells/well for HUH7 in a 24-well plate. After 24 h of seeding, cells were treated with 10, 50 or 100 nM of NV651 or DMSO as the control dissolved in their correspondent media, fresh media with compound was added every 72 h. After 72 h of treatment, cells were harvested and stained with DAPI (Santa Cruz Biotechnology, Cat# SC3598, Dallas, TX, USA) and Acridine Orange (AO) (Sigma-Aldrich, Cat# A9231-10ML, St. Louis, MO, USA) at final concentrations of 5 µg/mL and 1.5 µg/mL, respectively. Quantification of the total cell number and nonviable cells was performed every day up to the tenth day. Total cell number was quantified with acridine orange staining, and the cell viability in each sample was quantified by the ratio between cells positive for DAPI staining (nonpermeable dye) and acridine orange staining.

HUH7 [6] = experiment: as above; type: cell-based, human
Protocol: as §3

HUH7 [7] = experiment: Mitotic quantification by immunofluorescence; type: cell-based, human; details: 10 or 100 nM, 48 h
Protocol: HUH7 cells were seeded at a concentration of 4.5 × 10^4 cells/well in a 6-well plate containing coverslips, followed by the treatment of NV651 at 10 or 100 nM or the equivalent volume in DMSO. After 48 h, samples were fixed with 4% PFA (Histolab, Cat# 02176, Gothenburg, Sweden) and permeabilized with 0.1% Triton x-100 (Sigma-Aldrich, Cat# X100-500ML, St. Louis, MO, USA) diluted in PBS. Samples were stained with 1-µg/mL of rat anti-tubulin (Abcam, Cat# ab6161, Cambridge, UK) for one hour at room temperature. Lastly, DAPI and secondary antibody goat anti-rat IgG AF546 conjugate (Invitrogen, Cat# A11081, Waltham, MA, USA) were added. Coverslips were mounted on glass slides adding fluorescent mounting media (Dako, Agilent, Santa Clara, CA, USA). Thirteen pictures at 10× were taken with a Zeiss Confocal microscope and quantified for the number of mitotic cells in relation to the total number of cells with ImageJ.

In the case of `CC(=O)CCC1C(=O)NC(C(C)C)C(=O)NC(Cc2cc(O)cc(F)c2)C(=O)N2CCCC(N2)C(=O)OC(C(C)=CC=CC(=O)OC(C)(C)C)CC=CC=CC(O)C(C)C1O` (stereo not shown) [NV651], the pIC50 (iPS cardiomyocytes) was less than 4.52, the “fraction of cells positive for the phosphorylation of histone 3 (PH3)” value (HUH7 [1]) was “increased” and the bioavailability ([2]; 0.5 mg/kg IV vs 5 mg/kg PO) was 2%. For the same compound, the Tmax ([2]; 0.5 mg/kg IV) was roughly 5 min, the Tmax ([2]; 5 mg/kg PO) was roughly 60 min and the “cell size (FSC-A)” value (HEPG2 [3]; 100 nM NV651) was “increased trend in the cell size”. The “cell cycle distribution (DNA content)” value (HEPG2 [3]; 100 nM NV651, after 48–72 h) was “block in the G2/M phase”, the “subG1 fraction (apoptotic cells)” value (HEPG2 [3]; 100 nM NV651 up to 96 h) was “statistically significant increase in cell death” and the “cell size (FSC-A)” value (HUH7 [4]; 100 nM NV651) was “increased trend in the cell size”. The “cell cycle distribution (DNA content)” value (HUH7 [4]; 100 nM NV651, after 48–72 h) was “block in the G2/M phase”, the “subG1 fraction (apoptotic cells)” value (HUH7 [4]; 100 nM NV651 up to 96 h) was “statistically significant increase in cell death” and the “doubling time, elevated to” value (HEPG2 [5]; different concentrations of NV651 up to 10 days, from 43 h) was 827 h. The “cell viability (DAPI+ / AO+ cells)” value (HEPG2 [5]; up to 10 days of exposure) was “could not observe any differences”, the “cell viability (DAPI+ / AO+ cells)” value (HUH7 [6]; after 10 days of exposure) was “significant decrease” and the “doubling time, elevated to” value (HUH7 [6]; different concentrations of NV651 up to 10 days, from 35 h) was 155 h. For the same compound, the “number of mitotic counts” value (HUH7 [7]) was “increase in the number of mitotic counts”.
